Measured values from ChEMBL document CHEMBL4813927, “Discovery of Venturicidin Congeners and Identification of the Biosynthetic Gene Cluster from Streptomyces sp. NRRL S-4” (J Nat Prod, 2021).
pIC50: −log10 of the molar value. Counter-ions that a name gives are not always drawn.

Experiments:
MV4-11 = experiment: Cytotoxicity against human MV4-11 cells assessed as inhibition of cell growth measured after 72 hrs by Celltiter-Glo assay; format: functional, cell-based; conditions: MV4-11, 72 h
K562 = experiment: Cytotoxicity against human K562 cells assessed as inhibition of cell growth measured after 72 hrs by Celltiter-Glo assay; format: functional, cell-based; conditions: K562, 72 h
[1] = biological target: T1, Receptor-type tyrosine-protein kinase FLT3 (Homo sapiens, UniProt P36888); experiment: Inhibition of FLT3 (unknown origin) using MBP as substrate incubated for 40 mins in presence of ATP by ADP-Glo assay
T1 sequence (P36888 whole entry): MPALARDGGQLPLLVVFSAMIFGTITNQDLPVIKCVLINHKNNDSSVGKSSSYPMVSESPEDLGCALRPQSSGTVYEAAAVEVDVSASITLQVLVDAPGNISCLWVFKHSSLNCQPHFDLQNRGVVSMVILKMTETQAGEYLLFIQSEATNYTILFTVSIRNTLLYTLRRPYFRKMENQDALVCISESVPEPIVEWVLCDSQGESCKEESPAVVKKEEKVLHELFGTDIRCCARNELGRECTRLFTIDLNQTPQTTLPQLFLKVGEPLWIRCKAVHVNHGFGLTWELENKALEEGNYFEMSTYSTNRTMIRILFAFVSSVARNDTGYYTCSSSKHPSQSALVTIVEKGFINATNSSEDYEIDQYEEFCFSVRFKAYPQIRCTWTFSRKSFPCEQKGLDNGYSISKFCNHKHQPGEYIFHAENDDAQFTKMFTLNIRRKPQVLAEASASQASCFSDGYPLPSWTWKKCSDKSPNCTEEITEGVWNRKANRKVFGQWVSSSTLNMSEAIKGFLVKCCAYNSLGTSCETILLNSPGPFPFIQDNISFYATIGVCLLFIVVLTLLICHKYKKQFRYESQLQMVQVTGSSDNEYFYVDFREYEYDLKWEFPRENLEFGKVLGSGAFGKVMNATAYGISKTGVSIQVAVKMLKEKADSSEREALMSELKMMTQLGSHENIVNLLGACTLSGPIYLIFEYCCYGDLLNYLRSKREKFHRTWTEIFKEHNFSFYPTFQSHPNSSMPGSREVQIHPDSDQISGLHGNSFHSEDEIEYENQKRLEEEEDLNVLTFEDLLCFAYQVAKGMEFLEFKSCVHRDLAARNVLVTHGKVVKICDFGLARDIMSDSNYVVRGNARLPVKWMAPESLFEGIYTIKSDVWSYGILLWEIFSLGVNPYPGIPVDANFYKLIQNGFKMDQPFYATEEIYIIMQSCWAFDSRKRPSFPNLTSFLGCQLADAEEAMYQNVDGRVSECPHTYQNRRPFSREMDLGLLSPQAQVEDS

MDA-MB-468 = experiment: Cytotoxicity against human MDA-MB-468 cells assessed as inhibition of cell growth measured after 72 hrs by Celltiter-Glo assay; format: functional, cell-based; conditions: MDA-MB-468, 72 h
B16 = experiment: Cytotoxicity against mouse B16 cells assessed as inhibition of cell growth measured after 72 hrs by Celltiter-Glo assay; format: functional, cell-based; conditions: B16, 72 h
Hep 3B2 = experiment: Cytotoxicity against human Hep3B cells assessed as inhibition of cell growth measured after 72 hrs by Celltiter-Glo assay; format: functional, cell-based

Row | Structure (SMILES) | pIC50 (MV4-11) | other results
1 | CCC(=O)[C@@H](C)[C@@H](O)[C@H](C)C[C@@H](C)[C@H]1OC(=O)C[C@@]2(OC)CC=C(C)[C@H](O2)/C(C)=C/CCC[C@@H](O[C@H]2C[C@@H](OC(N)=O)[C@H](O)[C@@H](C)O2)/C=C/[C@H](C)C[C@H]1C | 5.39 | 
2 | CCC(=O)[C@@H](C)[C@@H](O)[C@H](C)C[C@@H](C)[C@H]1OC(=O)C[C@@]2(O)CC=C(C)[C@H](O2)/C(C)=C/CCC[C@@H](O[C@H]2C[C@@H](OC(N)=O)[C@H](O)[C@@H](C)O2)/C=C/[C@H](C)C[C@H]1C | 7.05 | pIC50 (K562): 5.24; pIC50 [1]: 4.19; pIC50 (MDA-MB-468): 5.08; pIC50 (B16): 4.92; pIC50 (Hep 3B2): 4.82
3 | CCC(=O)[C@@H](C)[C@H](O)[C@H](C)C[C@@H](C)[C@H]1OC(=O)C[C@@]2(O)CC=C(C)[C@H](O2)/C(C)=C/CCC[C@@H](O[C@H]2C[C@@H](OC(N)=O)[C@H](O)[C@@H](C)O2)/C=C/[C@H](C)C[C@H]1C | 4.22 | 
4 | CCC(=O)[C@@H](C)[C@@H](O)[C@H](C)C[C@@H](C)[C@H]1OC(=O)C[C@@]2(O)CC[C@H](C)[C@H](O2)/C(C)=C/CCC[C@@H](O[C@H]2C[C@@H](OC(N)=O)[C@H](O)[C@@H](C)O2)/C=C/[C@H](C)C[C@H]1C | 6.03 | 
5 | COc1cccc2c1C(=O)c1c(O)c3c(c(O)c1C2=O)C[C@@](O)(C(=O)CO)C[C@@H]3O[C@H]1C[C@H](N)[C@H](O)[C@H](C)O1 [DOXORUBICIN HYDROCHLORIDE] | 6.85 | 
